Source: patent publication US8389468B2, “Approach to the treatment of compartment syndrome” (Lantmannen AS-Faktor AB, priority 2006, dated 2013)
“Also recorded” adds a separate entry of the source.

How the values were obtained:
[1] = system: HSV-1; test: Immunohistochemical demonstration of HSV antigens in brain, mice; type: in vivo; details: instillation twice daily in right nostril, six days
Procedure: (§1) An alternative explanation to the improved survival of HSV-1 infected animals could be that the treatment with AF-16 prevented the virus from multiplying and/or spreading in the brain. […] Adult rats were infected by having a solution of the herpes simplex virus type 1 (HSV-1; strain 2762, batch 041028; 1.7×10^7 PFU/mL) instilled in their right nostril. Half of the animals received 10 min later 25 pi_ (1 or 10 pg) of AF-16 in their right nostril, and had thereafter the same dose of AF-16 instilled every morning at 8 AM and every night at 6 PM until the experiment was terminated on day 6. The other groups of the HSV-1 infected rats received at the same time intervals 25 pL of the vehicle, PBS. The animals were closely watched for signs of general sickness and of behavioral and motor dysfunction. The animals were sacrificed by an overdose of anesthetics on day 6, the skull opened and the brain removed. The brains, including the olfactory bulbs, were fixed by immersion in buffered formalin for at least a day. The brains were the dissected and divided in several specimens, which were processed for light microscopic investigation after paraffin embedding and sectioning. The sections were processed for routine staining and for immunohistochemical visualization of HSV-1 proteins (FIG. 4). […] Note the distinct staining of the nerve cells (black in FIG. 4a-c).

[2] = system: Musculus extensor digitorum longus (EDL); test: Ischemic injury of skeletal muscle (EDL), compartment pressure; type: in vivo, rat
Procedure: On the hind leg, the large vessels entering the Musculus extensor digitorum longus (EDL) were occluded for 1-3 hours by applying external pressure load (Cf. Jennische & Hansson, 1987; Jennische, Skottner & Hansson, 1987). Thereafter, the blood flow was allowed to resume, and the muscle enclosures and the skin incision repaired and sutured. […] A CS developed as the tissue and the interstitial tissue accumulated fluid in such a closed compartment and additionally the muscle tissue turned swollen and oedematous. The pressure within such an enclosed compartment increased, resulting in the development of a CS. Surgical intervention was required to prevent that parts of the skeletal muscle tissue became necrotic, if there was no additional treatment. […] Thus, treatment with AF-16 prevented the development of a CS, eventually reducing the tissue damage and loss.

[3] = system: HSV-1; test: Immunohistochemical visualization of HSV-1 proteins in brain, rats; type: in vivo, rat; details: 1 or 10 pg intranasally twice daily, day 6
Procedure: as §1

[4] = system: femoral artery; test: Injured arteries, local delivery by osmotic minipump; type: in vivo, rat
Text: During surgery and at a trauma arteries may be injured, causing the vascular wall to swell. These events will result in the development of elevated IFP in the vascular wall, resulting in inflammatory reactions and rebuilding (Hansson, Jennische & Skottner, 1987). […] Additional animals had for comparison their pumps filled with the vehicle. The injured arteries were investigated either 3, 5, 7 or 14 days later. Blood vessels recovered from the vehicle-treated animals were tender, had increased outer diameter and were swollen. […] The potency rate was higher for those treated with AF-16 as compared to the vehicle exposed ones. […] Further, the number of macrophages, foam cells and lymphocytes was as well reduced by the AF-16 treatment.

[5] = system: inflammation markers IL-1, IL-6, and TNF-a; test: Inflammation markers in CSF of HSV-1 infected rats; type: in vivo, rat; details: day 6, 1 or 10 pg intranasally twice daily, n=3
Procedure: To test that hypothesis, adult rats were infected by having a solution of the herpes simplex virus type 1 (HSV-1; strain 2762, batch 041028; 1.7×10^7 PFU/mL) instilled in their right nostril. Half of the animals received 10 min later 25 μL (1 or 10 pg) of AF-16 in their right nostril, and had thereafter the same dose of AF-16 instilled every morning at 8 AM and every night at 6 PM until the experiment was terminated on day 6. The other half of the HSV-1 infected rats received at the same time intervals 25 μL of the vehicle, phosphate buffered saline. On day 6, cerebrospinal fluid (CSF) samples were taken from the animals, either treated with AF-16 (n=3), or the vehicle (n=3), according to the procedure described by Huang, Saljo and Hansson (1996). […] It is concluded that treatment with AF-16 is not likely to improve the survival of rodents suffering from HSV-1 encephalitis by altering the inflammatory response, but by normalizing the intracranial pressure, thereby preventing prevalence of high ICP in a CC and thereby the development of a CS. The deleterious effects caused by the HSV-1 encephalitis were thus considered to be due to that AF hampered the development of a CS.

[6] = system: Staphylococcus areus (SA; strain LS1) infected joints; test: Arthritis by arthritogenic Staphylococcus areus (strain LS1), joint pressure; type: in vivo, rat
Text: Joints are enclosed by tender, noncompliant collagen capsules, further characterised by low elasticity but plasticity. At arthritis, the pressure in the synovial fluid in the joint cavity turns elevated, and inflammation adds to the symptoms. A CS is prevalent. In order to investigate if treatment with AF-16 could prevent or at least reduce the development of such a CS, adult rats were infected by systemic injection of a solution of an arthritogenic Staphylococcus areus (SA; strain LS1). One group of animals (n=3) were treated with AF-16 while a second group of rats (n=3) just received the vehicle, PBS. After a few days the knee joints and later on additional limb and foot joints turned tender, swollen and got elevated pressure in the joint cavities, as measured with the Samba Fibre Optic Pressure probe (Samba System 3200 & Samba Preclin 420 sensor; Samba Sensors AB, Gruvgatan 6, SE 42130 V. Frolunda, Sweden), as well as in the immediately surrounding tissue. The pressure in a normal synovial large joint is 0-5 mm Hg, but could increase more than five-fold in infected, inflamed joints. The interstitial fluid pressure in the subcutaneous tissue at a distance from the infected joint was measured for comparison and found to remain within normal limits, ±2 mm Hg. […] Infected animals, which only received treatment with the vehicle, PBS, developed CS of with time increasing severity.

VCHSKTRSNPENNVGL [AF-16]
distribution or extent of virus antigens in the brain vs vehicle [1]: no obvious difference in the distribution or extent of virus antigens | pressure within the muscle compartment ([2]; EDL vessels occluded 1-3 hours, Samba pressure sensors): turn about normal | extent and volume of muscle tissue damage (light microscopy) ([2]; vs vehicle): reduced the extent and volume of the tissue damage | prevalence and distribution of HSV-1 proteins in the brain vs vehicle [3]: no obvious difference with regard to the prevalence and distribution of HSV-1 proteins; also recorded: no difference in frequency or distribution of HSV-1 positive brain cells | swelling and inflammation of injured vessels ([4]; 3, 5, 7 or 14 days, vs vehicle): less swollen and inflamed | damage, inflammatory reactions and reactive alterations (neointima) of femoral artery ([4]; after 14 days, vs vehicle): less damage and less prominent inflammatory reactions and less extensive reactive alterations | number of macrophages, foam cells and lymphocytes ([4]; rat, in vivo): reduced | potency rate ([4]; vs vehicle): higher | IL-1 concentration in CSF vs vehicle [5]: no significant difference in the concentrations | IL-6 concentration in CSF vs vehicle [5]: no significant difference in the concentrations | TNF-a concentration in CSF vs vehicle [5]: no significant difference in the concentrations | joint tenderness, swelling, pain ([6]; SA infected large joint): did not have that tender, swollen and painful joints | pressure in the infected joint ([6]; SA infected large joint, n=3, normal joint 0-5 mm Hg): close to normal pressure in the joint | number of S. areus in synovial fluid, treated vs not ([6]; larger joints): about the same
